According to paper PMC5601486, “Identification of 4-phenylquinolin-2(1H)-one as a specific allosteric inhibitor of Akt” (Scientific Reports, 2017):

Tests used:
ROS1 = test: KINOMEscan; details: 50000 nM
Procedure: KINOMEscan™ selectivity screen
(§5) The assay was perfor med at DiscoveRx Corporation according the methods published previously5. Briefly, Kinase-tagged T7 phage strains were grown in parallel in an E. coli host derived from the BL21 strain. E. coli were grown to log-phase and infected with T7 phage from a frozen stock and incubated with shaking at 32°C until lysis (90-150 minutes). The kinases were produced in HEK-293 cells and subsequently tagged with DNA for qPCR detection. Streptavidin-coated magnetic beads were treated with biotinylated small molecule ligands to generate affinity resins for kinase
(§6) inhibitor or DMSO control was performed in polypropylene 384-well plates for 1 hr at room temperature. After wash with PBS buffer containing 0.05% Tween 20, the beads were incubated in elution buffer (PBS containing 0.05 % Tween 20 and 0.5 μM non-biotinylated affinity ligand) for 30 minutes at room temperature. The kinase concentration in the eluates was measured by qPCR.

NIK = test: KINOMEscan; details: 50000 nM
Procedure: KINOMEscan™ selectivity screen
Briefly, Kinase-tagged T7 phage strains were grown in parallel in an E. coli host derived from the BL21 strain. E. coli were grown to log-phase and infected with T7 phage from a frozen stock and incubated with shaking at 32°C until lysis (90-150 minutes). The kinases were produced in HEK-293 cells and subsequently tagged with DNA for qPCR detection.
After wash with PBS buffer containing 0.05% Tween 20, the beads were incubated in elution buffer (PBS containing 0.05 % Tween 20 and 0.5 μM non-biotinylated affinity ligand) for 30 minutes at room temperature. The kinase concentration in the eluates was measured by qPCR.

FLT3(D835Y) = test: KINOMEscan; details: 50000 nM
Procedure: KINOMEscan™ selectivity screen
as §5, §6

GRK4 = test: KINOMEscan; details: 50000 nM
Procedure: KINOMEscan™ selectivity screen
(§7) The assay was perfor med at DiscoveRx Corporation according the methods published previously5. […] The kinases were produced in HEK-293 cells and subsequently tagged with DNA for qPCR detection. Streptavidin-coated magnetic beads were treated with biotinylated small molecule ligands to generate affinity resins for kinase
as §6

PIK4CB = test: KINOMEscan; details: 50000 nM
Procedure: KINOMEscan™ selectivity screen
as §5, §6

MYO3A = test: KINOMEscan; details: 50000 nM
Procedure: KINOMEscan™ selectivity screen
as §5, §6

BRAF(V600E) = test: KINOMEscan; details: 50000 nM
Procedure: KINOMEscan™ selectivity screen
as §5, §6

RIPK5 = test: KINOMEscan; details: 50000 nM
Procedure: KINOMEscan™ selectivity screen
as §5, §6

TAK1 = test: KINOMEscan; details: 50000 nM
Procedure: KINOMEscan™ selectivity screen
(§8) Briefly, Kinase-tagged T7 phage strains were grown in parallel in an E. coli host derived from the BL21 strain. E. coli were grown to log-phase and infected with T7 phage from a frozen stock and incubated with shaking at 32°C until lysis (90-150 minutes). The kinases were produced in HEK-293 cells and subsequently tagged with DNA for qPCR detection. Streptavidin-coated magnetic beads were treated with biotinylated small molecule ligands to generate affinity resins for kinase
as §6

PIK3CA(E542K) = test: KINOMEscan; details: 50000 nM
Procedure: KINOMEscan™ selectivity screen
as §5, §6

FAK = test: KINOMEscan; details: 50000 nM
Procedure: KINOMEscan™ selectivity screen
as §5, §6

CAMK1G = test: KINOMEscan; details: 50000 nM
Procedure: KINOMEscan™ selectivity screen
as §8, §6

PCTK1 = test: KINOMEscan; details: 50000 nM
Procedure: KINOMEscan™ selectivity screen
as §8, §6

BUB1 = test: KINOMEscan; details: 50000 nM
Procedure: KINOMEscan™ selectivity screen
as §5, §6

GSK3A = test: KINOMEscan; details: 50000 nM
Procedure: KINOMEscan™ selectivity screen
as §8, §6

MARK1 = test: KINOMEscan; details: 50000 nM
Procedure: KINOMEscan™ selectivity screen
as §7, §6

PKN2 = test: KINOMEscan; details: 50000 nM
Procedure: KINOMEscan™ selectivity screen
as §5, §6

ERBB3 = test: KINOMEscan; details: 50000 nM
Procedure: KINOMEscan™ selectivity screen
as §5, §6

MAK = test: KINOMEscan; details: 50000 nM
Procedure: KINOMEscan™ selectivity screen
as §5, §6

CDK5 = test: KINOMEscan; details: 50000 nM
Procedure: KINOMEscan™ selectivity screen
as §5, §6

ERK3 = test: KINOMEscan; details: 50000 nM
Procedure: KINOMEscan™ selectivity screen
as §8, §6

ERK1 = test: KINOMEscan; details: 50000 nM
Procedure: KINOMEscan™ selectivity screen
as §5, §6

MET = test: KINOMEscan; details: 50000 nM
Procedure: KINOMEscan™ selectivity screen
as §5, §6

DAPK3 = test: KINOMEscan; details: 50000 nM
Procedure: KINOMEscan™ selectivity screen
as §8, §6

SGK1 = test: Western blot of SGK1 S422 phosphorylation; format: cell-based, Mouse; details: all concentrations tested including 80 µM
Procedure: (§1) Neuro 2A cells were seeded in 12-well plates in DMEM containing 5% FBS for 24 hr.
(§2) After overnight serum starvation (in 0% FBS DMEM), cells were incubated for 30 min at 37 °C with G7 or LY294002 or Torin 1 (Sigma Aldrich) at various concentrations, or DMSO control. IGF-1 was added to each well at a final concentration of 100 ng/mL. After 30-min incubation cells were washed with cold PBS and lysed with 50 µL lysis buffer containing 1% Triton X-100 and protease/phosphatase inhibitors (Cell Signaling Technology) or RIPA buffer (Santa Cruz Biotech). Samples were electrophoresed in 4–12% Bis-Tris gels (Life Technologies) at 150 V using MOPS SDS running buffer. Proteins were transferred electrophoretically to a PVDF or nitrocellulose membrane. For detection of cleaved […]
(§3) caspase 3 a Trans-Blot Turbo Transfer System (Bio-Rad, 25 V for 25 min) with PVDF membrane were used. […]
(§4) anti- GAPDH (14C10) antibody (#2118) (all antibodies were from Cell Signaling Technology unless indicated, 1:1000 dilution was used) at 4°C overnight, washed three times with TBS-T, then incubated with peroxidase-conjugated secondary antibody (Sigma-Aldrich) for 1 hr at room temperature. […] Band intensity was quantitated using Kodak 1D imaging analysis software. […]

HPK1 = test: KINOMEscan; details: 50000 nM
Procedure: KINOMEscan™ selectivity screen
as §5, §6

TNNI3K = test: KINOMEscan; details: 50000 nM
Procedure: KINOMEscan™ selectivity screen
as §5, §6

PRKD3 = test: KINOMEscan; details: 50000 nM
Procedure: KINOMEscan™ selectivity screen
as §5, §6

NEK6 = test: KINOMEscan; details: 50000 nM
Procedure: KINOMEscan™ selectivity screen
as §5, §6

FGR = test: KINOMEscan; details: 50000 nM
Procedure: KINOMEscan™ selectivity screen
as §5, §6

GAK = test: KINOMEscan; details: 50000 nM
Procedure: KINOMEscan™ selectivity screen
as §7, §6

EPHA3 = test: KINOMEscan; details: 50000 nM
Procedure: KINOMEscan™ selectivity screen
as §5, §6

PIK3CA(E545A) = test: KINOMEscan; details: 50000 nM
Procedure: KINOMEscan™ selectivity screen
as §8, §6

[1] = test system: JAK2(JH1domain-catalytic); test: KINOMEscan; details: 50000 nM
Procedure: KINOMEscan™ selectivity screen
as §8, §6

IKK-epsilon = test: KINOMEscan; details: 50000 nM
Procedure: KINOMEscan™ selectivity screen
as §8, §6

TGFBR2 = test: KINOMEscan; details: 50000 nM
Procedure: KINOMEscan™ selectivity screen
as §5, §6

CDK3 = test: KINOMEscan; details: 50000 nM
Procedure: KINOMEscan™ selectivity screen
as §8, §6

Akt S473 phosphorylation = test: Western blot analysis of S473 phosphorylation; format: cell-based; details: Mus musculus, N2a, 0.5 h; Neuro 2A cells, IGF stimulation 30 min; read-out: IC50 of IGF-induced S473 phosphorylation
Procedure: as §1, §2, §3, §4

For `Oc1cc(-c2ccccc2)c2ccccc2n1` [G7, 4-phenylquinolin-2(1H)-one], the “Percent Control” value (ROS1) was 98%, the “Percent Control” value (NIK) was 93% and the “Percent Control” value (FLT3(D835Y)) was 33%. For the same compound, the “Percent Control” value (GRK4) was 96%, the “Percent Control” value (PIK4CB) was 64% and the “Percent Control” value (MYO3A) was 85%. The “Percent Control” value (BRAF(V600E)) was 71%, the “Percent Control” value (RIPK5) was 73% and the “Percent Control” value (TAK1) was 61%. The “Percent Control” value (PIK3CA(E542K)) was 82%, the “Percent Control” value (FAK) was 93% and the “Percent Control” value (CAMK1G) was 77%. For the same compound, the “Percent Control” value (PCTK1) was 91%, the “Percent Control” value (BUB1) was 85% and the “Percent Control” value (GSK3A) was 22%. The “Percent Control” value (MARK1) was 76%, the “Percent Control” value (PKN2) was 89% and the “Percent Control” value (ERBB3) was 88%. The “Percent Control” value (MAK) was 77%, the “Percent Control” value (CDK5) was 75% and the “Percent Control” value (ERK3) was 92%. The “Percent Control” value (ERK1) was 89%, the “Percent Control” value (MET) was 73% and the “Percent Control” value (DAPK3) was 74%. For the same compound, the “S422 phosphorylation of SGK1” value (SGK1) was “did not inhibit”, the “Percent Control” value (HPK1) was 98% and the “Percent Control” value (TNNI3K) was 95%. The “Percent Control” value (PRKD3) was 89%, the “Percent Control” value (NEK6) was 92% and the “Percent Control” value (FGR) was 88%. The “Percent Control” value (GAK) was 56%, the “Percent Control” value (EPHA3) was 66% and the “Percent Control” value (PIK3CA(E545A)) was 100%. For the same compound, the “Percent Control” value [1] was 61%, the “Percent Control” value (IKK-epsilon) was 100% and the “Percent Control” value (TGFBR2) was 100%. The “Percent Control” value (CDK3) was 88% and the IC50 (Akt S473 phosphorylation) was 18 µM.
